Results from patent publication US20230128137A1, “BENZO FIVE-MEMBERED CYCLIC COMPOUND” (MEDSHINE DISCOVERY INC., priority 2020, published 2023).
Several values for one entry are separate records, joined by “and”; a condition that tells them apart may be missing. Identical values can stand only once.

How the values were obtained:
Bcl-xL = target: T1, Bcl-xL (Homo sapiens, UniProt Q07817); assay: HTRF competition test, Bcl-xL with FAM-Bad peptide (enzymology experiment); type: binding; conditions: 3 nM Bcl-xL and 40 nM FAM-Bad, read-out: IC50 (nM) for inhibition of Bcl-xL enzyme
T1 construct: Human recombinant Bcl-xL (amino acid 1-209); purchased Reaction Biology Corporation (RBC) APT-11-442; host or cells: E. coli
Experimental: This experiment was based on the competition between fluorescently-labeled Bak/Bad/Noxa peptides and GST-labeled Bcl family proteins. The fluorescence detection method based on HTRF was to observe the binding degree by using the fluorescence ratio between Tb-labeled anti-GST and FAM-labeled peptides. This peptide binds to the surface of the Bcl family protein pocket, which is essential for its anti-apoptotic function.
1.1 Experimental reagents: analysis buffer: 20 mM potassium phosphate, pH 7.5, 50 mM sodium chloride, 1 mM EDTA, 0.005% Tritonx-100 and 1% DMSO.
1.2 Probe: 5,6-FAM-peptide
1.4 Experimental Conditions:
3 nM Bcl-xL and 40 nM FAM-Bad
a) The Bcl enzyme reaction solution was prepared in the newly prepared analysis buffer;
b) the Bcl enzyme reaction solution was provided;
c) the compound was first prepared into a 100% dimethyl sulfoxide solution, and then the compound solution was mixed with the Bcl enzyme reaction solution using (Echo550; nanoliter range) technology, and co-incubated for 10 minutes;
d) the FAM peptide solution was added.
e) the mixed solution was gently stirred in dark and room temperature, and co-cultured for 10 minutes.
f) Anti-GST solution was added.
g) The mixed solution was gently stirred in dark and room temperature, and co-cultured for 1 hour.
h) The HTRF high-frequency fluorescence ratio was tested, and the IC50 values were calculated.

[1] = tested on: human acute lymphoblastic leukemia cell RS4;11 graft tumor; assay: In vivo anti-tumor effect, RS4;11 graft tumor model in BALB/c nude mice; set-up: species or system BALB/c nude mouse; conditions: for T/C (relative tumor proliferation rate) / TGI (tumor growth inhibition rate): based on tumor volume on day 32
Experimental: 5.1 Experimental animals: Balb/c nude mice, 32 mice, 7 to 8 weeks old, female;
5.2 tumor cells: human acute lymphoblastic leukemia cell line RS4;11, cultured in a suspension in vitro, and the culture conditions were RPMI-1640 culture medium containing 10% fetal bovine serum, cultured in a 5% CO2 incubator at 37° C. When the cells were in exponential growth period and the saturation was 80% to 90%, the cells were collected and counted;
5.3 cell seeding and grouping: the cells were resuspended in […], and the basement membrane matrigel was added in 1:1, and the mixture was mixed well, and the density was 5×10^7 cells/mL. 0.2 mL of cell suspension (containing 1×10^7 RS4;11 cells) was subcutaneously inoculated on the right back of each mouse, and when the average tumor volume reached about 120 mm^3, the drug was administered randomly according to the tumor volume;
5.4 preparation of the subject: an appropriate amount of compound 2 was weighed respectively, and the solvent formula was 2.5% dimethyl sulfoxide, 5% ethanol, 10% cremophor EL, 20% glucose solution (concentration of 5%), 62.5% water;
5.5 tumor-bearing mice divided into four groups (8 mice in each group) were given blank solvent, compound 2 (12.5 mpk, QD), compound 2 (25 mpk, QD) and compound 2 (50 mpk, QD), respectively;
5.6 tumor measurement and experimental indicators:
tumor diameters were measured with vernier calipers two times a week. The calculation formula of tumor volume is: V=0.5×a×b^2, a represents the long diameter of the tumor, and b represents the short diameter of the tumor. The tumor inhibition efficacy of the compounds was evaluated by TGI (%) or relative tumor proliferation rate T/C (%).
Relative tumor proliferation rate T/C %=TRTV/CRTV×100% (TRTV: RTV in the treatment group; CRTV: RTV in the negative control group). The relative tumor volume (RTV) is calculated according to the results of tumor measurement, and the formula is RTV=Vt/V0, where V0 is the tumor volume measured at the time of group administration (i.e., D0), and Vt is the tumor volume measured at a certain measurement, TRTV and CRTV were taken on the same day.
TGI (%), reflecting the tumor growth inhibition rate. The formula for calculating the tumor inhibition efficacy TGI is: […]

RS4;11 cells = assay: CTG (CellTiter-Glo) test of inhibition of RS4;11 cell proliferation; type: cell-based; conditions: Homo sapiens, 72 hours incubation
Experimental: 2.1 Experimental objectives: To obtain the IC50 value of the test compound in RS4;11 cell lines;
2.2 incubation time: 72 hours;
2.3 experimental method: CTG (Cell Titer-Glo™ Luminescent Cell Viability Assay);
a. when the cells were fused to 80%, the cells were collected and counted;
b. RS4; 11 cell suspension was diluted to 5000 cells/well and 20 uls of cell suspension was seeded in each well of 384-well plate;
c. the cell plates were placed back to 37° C. and incubated in a 5% carbon dioxide incubator for 24 hours;
d. the test compound was prepared into DMSO solution, and 5 μL of each was added to the designated well of the test plate, and the final concentration of DMSO solution was 0.5%;
e. initiation cell viability was detected by CTG;
f. the test plate was put back into the incubator and incubated for another 72 hours;
g. after 72 hours incubation, CellTiter-Glo™ luminescent cell viability assay was completed according to the manufacturer's manual;

T1 sequence (Q07817 1-209): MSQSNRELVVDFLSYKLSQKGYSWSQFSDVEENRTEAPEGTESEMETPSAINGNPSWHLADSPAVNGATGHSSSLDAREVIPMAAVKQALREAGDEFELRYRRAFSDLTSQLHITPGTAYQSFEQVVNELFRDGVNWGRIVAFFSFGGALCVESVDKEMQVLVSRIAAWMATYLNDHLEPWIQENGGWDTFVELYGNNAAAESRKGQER

CC1(C)CCC(CN2CCN(c3ccc(C(=O)NS(=O)(=O)c4cc([N+](=O)[O-])c(NCC5CCOCC5)c5[nH]cnc45)c(Oc4cnc5[nH]ccc5c4)c3)CC2)=C(c2ccc(Cl)cc2)C1 [Compound 2]
IC50 (Bcl-xL): 411 nM | animal state during the experiment ([1]; 12.5, 25, 50 mpk, QD): normal | T/C (relative tumor proliferation rate) ([1]; 12.5 mpk, QD): 22.37% | TGI (tumor growth inhibition rate) ([1]; 12.5 mpk, QD): 82.12% | Tumor volume ([1]; 12.5 mpk, QD, day 1 after administration, mean ± SEM, n = 8): 114.44 ± 4.91 mm^3 and 114.44 mm^3 | Tumor volume ([1]; 12.5 mpk, QD, day 4 after administration): 124.75 ± 10.85 mm^3 | Tumor volume ([1]; 12.5 mpk, QD, day 6 after administration): 120.60 ± 12.60 mm^3 | Tumor volume ([1]; 12.5 mpk, QD, day 8 after administration): 124.22 ± 15.25 mm^3 | Tumor volume ([1]; 12.5 mpk, QD, day 11 after administration): 126.73 ± 11.57 mm^3 | Tumor volume ([1]; 12.5 mpk, QD, day 14 after administration): 145.41 ± 17.58 mm^3 | Tumor volume ([1]; 12.5 mpk, QD, day 18 after administration): 198.17 ± 38.18 mm^3 | Tumor volume ([1]; 12.5 mpk, QD, day 21 after administration): 209.63 ± 39.56 mm^3 | Tumor volume ([1]; 12.5 mpk, QD, day 25 after administration): 254.52 ± 52.29 mm^3 | Tumor volume ([1]; 12.5 mpk, QD, day 28 after administration): 306.93 ± 66.01 mm^3 | Tumor volume ([1]; 12.5 mpk, QD, day 32 after administration, mean ± SEM, n = 8): 365.13 ± 85.31 mm^3 and 365.13 mm^3 | T/C (relative tumor proliferation rate) ([1]; 25 mpk, QD): 16.54% | TGI (tumor growth inhibition rate) ([1]; 25 mpk, QD): 89.15% | Tumor volume ([1]; 25 mpk, QD, day 1 after administration, mean ± SEM, n = 8): 114.50 ± 4.98 mm^3 and 114.50 mm^3 | Tumor volume ([1]; 25 mpk, QD, day 4 after administration): 99.54 ± 6.66 mm^3 | Tumor volume ([1]; 25 mpk, QD, day 6 after administration): 106.03 ± 13.15 mm^3 | Tumor volume ([1]; 25 mpk, QD, day 8 after administration): 107.66 ± 15.62 mm^3 | Tumor volume ([1]; 25 mpk, QD, day 11 after administration): 101.57 ± 15.87 mm^3 | Tumor volume ([1]; 25 mpk, QD, day 14 after administration): 116.52 ± 28.85 mm^3 | Tumor volume ([1]; 25 mpk, QD, day 18 after administration): 146.77 ± 44.03 mm^3 | Tumor volume ([1]; 25 mpk, QD, day 21 after administration): 191.06 ± 69.68 mm^3 | Tumor volume ([1]; 25 mpk, QD, day 25 after administration): 174.50 ± 58.56 mm^3 | Tumor volume ([1]; 25 mpk, QD, day 28 after administration): 206.82 ± 76.64 mm^3 | Tumor volume ([1]; 25 mpk, QD, day 32 after administration, mean ± SEM, n = 8): 266.63 ± 95.51 mm^3 and 266.63 mm^3 | T/C (relative tumor proliferation rate) ([1]; 50 mpk, QD): 7.30% | TGI (tumor growth inhibition rate) ([1]; 50 mpk, QD): 100.27% | Tumor volume ([1]; 50 mpk, QD, day 1 after administration, mean ± SEM, n = 8): 114.18 ± 4.30 mm^3 and 114.18 mm^3 | Tumor volume ([1]; 50 mpk, QD, day 4 after administration): 95.13 ± 7.43 mm^3 | Tumor volume ([1]; 50 mpk, QD, day 6 after administration): 91.16 ± 6.08 mm^3 | Tumor volume ([1]; 50 mpk, QD, day 8 after administration): 86.91 ± 4.92 mm^3 | Tumor volume ([1]; 50 mpk, QD, day 11 after administration): 67.64 ± 3.93 mm^3 | Tumor volume ([1]; 50 mpk, QD, day 14 after administration): 74.27 ± 6.37 mm^3 | Tumor volume ([1]; 50 mpk, QD, day 18 after administration): 58.39 ± 6.94 mm^3 | Tumor volume ([1]; 50 mpk, QD, day 21 after administration): 70.21 ± 8.91 mm^3 | Tumor volume ([1]; 50 mpk, QD, day 25 after administration): 75.62 ± 10.30 mm^3 | Tumor volume ([1]; 50 mpk, QD, day 28 after administration): 78.03 ± 9.52 mm^3 | Tumor volume ([1]; 50 mpk, QD, day 32 after administration, mean ± SEM, n = 8): 110.37 ± 19.73 mm^3 and 110.37 mm^3 | tumor inhibition effect (in words) ([1]; three dose groups (12.5, 25, 50 mpk, QD), obvious dose-dependence): significant tumor inhibition effect | IC50 (RS4;11 cells): 2.7 nM
